Experimental data reported in patent US5300506A, “Indolylalkyl derivatives of pyrimidinylpiperazine for treating vascular headache” (Bristol-Myers Squibb Company, priority 1992, dated 1994).
Structures can show the parent of a compound that is named as a salt.

How the values were obtained:
5-HT1D = biological target: T1, 5-HT1D (Bos taurus, UniProt F1MGM3); assay: 5-HT1D binding site affinity (tritiated serotonin; methodology of Heuring and Peroutka with minor modifications); conditions: in vitro
T1 construct: from tissue
Method: Determination of 5-HT1D binding properties was accomplished employing methodology such as that described by Heuring and Peroutka, J. Neurosci., 7(3), 1987, 894-903; with only minor modifications. In vitro IC50 (nM) test values were determined for the compounds of this invention employing tritiated serotonin.

[1] = use in headache treatment; cited from earlier work
migraine sufferers = conditions: migraine patients; cited from earlier work
plasma serotonin = conditions: intramuscular injection; cited from earlier work

T1 sequence (F1MGM3 1-403): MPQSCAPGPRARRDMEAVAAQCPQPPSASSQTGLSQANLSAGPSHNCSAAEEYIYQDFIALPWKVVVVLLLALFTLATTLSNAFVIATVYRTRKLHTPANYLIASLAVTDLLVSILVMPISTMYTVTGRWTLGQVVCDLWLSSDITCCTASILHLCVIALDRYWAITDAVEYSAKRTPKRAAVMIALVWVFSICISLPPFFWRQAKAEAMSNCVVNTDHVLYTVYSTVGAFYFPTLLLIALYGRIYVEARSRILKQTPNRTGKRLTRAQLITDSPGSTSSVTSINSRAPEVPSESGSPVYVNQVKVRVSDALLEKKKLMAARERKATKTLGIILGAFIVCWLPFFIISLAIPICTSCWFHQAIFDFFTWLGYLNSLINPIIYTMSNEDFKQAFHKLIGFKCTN

In the case of `CCOc1cncnc1N1CCN(CCCc2c[nH]c3ccccc23)CC1` [Example 52, 4-(5-Ethoxy-4-pyrimidinyl)-1-[3-(1H-indol-3-yl)propyl]piperazine hydrochloride hydrate], the IC50 (5-HT1D) is reported as 2 nM.

`COc1cncnc1N1CCN(C(C)CCc2c[nH]c3ccccc23)CC1` (stereo not drawn) [Example 53] showed an IC50 (5-HT1D) of 5 nM.

Work on `CCC(CCc1c[nH]c2ccccc12)N1CCN(c2ncncc2OC)CC1` (stereo not drawn) [Example 54, 3-[3-[4-(5-Methoxy-4-pyrimidinyl)-1-piperazinyl]pentyl]indole] yielded an IC50 (5-HT1D) of 20.5 nM.

For `COc1cncnc1N1CCN(CCCc2c[nH]c3ccc(O)cc23)CC1` [Example 55, 1-[3-(5-Hydroxy-1H-indol-3-yl)propyl]-4-(5-methoxy-4-pyrimidinyl)piperazine], the IC50 (5-HT1D) was 0.8 nM.

For `COc1cncnc1N1CCN(CCCc2c[nH]c3ccc(F)cc23)CC1` [Example 60], the IC50 (5-HT1D) was 3 nM.

With `COc1cncnc1N1CCN(CCCc2c[nH]c3ccccc23)CC1` [Example 61] the IC50 (5-HT1D) was 2.9 nM.

`COc1cncnc1N1CCN(CCCc2c[nH]c3ccccc23)CC1C` (stereo not drawn) [Example 62] showed an IC50 (5-HT1D) of 4.2 nM.

For `COc1cncnc1N1CCN(CCCc2c[nH]c3ccc(NS(C)(=O)=O)cc23)CC1` [Example 63], the IC50 (5-HT1D) was 5.2 nM.

Work on `COc1cncnc1N1CCN(CCCc2c[nH]c3ccc(N(C)S(C)(=O)=O)cc23)CC1` [Example 65] yielded an IC50 (5-HT1D) of 4.9 nM.

For `COc1cncnc1N1CCN(CCCc2c[nH]c3ccc(N(C)S(C)(=O)=O)cc23)CC1C` (stereo not drawn) [Example 66], the IC50 (5-HT1D) was 12 nM.

For `CCS(=O)(=O)Nc1ccc2[nH]cc(CCCN3CCN(c4ncncc4OC)CC3)c2c1` [Example 67], the IC50 (5-HT1D) was 13.7 nM.

In the case of `CCS(=O)(=O)N(C)c1ccc2[nH]cc(CCCN3CCN(c4ncncc4OC)CC3)c2c1` [Example 68], the IC50 (5-HT1D) is reported as 12.9 nM.

Molecule `CCS(=O)(=O)N(C)c1ccc2[nH]cc(CCCN3CCN(c4ncncc4OC)C(C)C3)c2c1` (stereo not drawn) [Example 69] has an IC50 (5-HT1D) of 19.1 nM.

With `CCS(=O)(=O)Nc1ccc2[nH]cc(CCCN3CCN(c4ncncc4OC)C(C)C3)c2c1` (stereo not drawn) [Example 70] the IC50 (5-HT1D) was 17.1 nM.

`CCOc1ccc2[nH]cc(CCCN3CCN(c4ncncc4OC)CC3)c2c1` [Example 71] gave an IC50 (5-HT1D) of 2.2 nM.

In the case of `COc1cncnc1N1CCN(CCCc2c[nH]c3ccc(OCc4ccccc4)cc23)CC1` [Example 72], the IC50 (5-HT1D) is reported as 14.3 nM.

In the case of `COc1ccc2[nH]cc(CCCN3CCN(c4ncncc4OC)CC3)c2c1` [Example 73], the IC50 (5-HT1D) is reported as 1.1 nM.

In the case of `COc1cncnc1N1CCN(CCCc2c[nH]c3cc(F)c(F)cc23)CC1` [Example 74], the IC50 (5-HT1D) is reported as 29 nM.

With `COc1cncnc1N1CCN(CCCc2c[nH]c3c(F)ccc(F)c23)CC1` [Example 75] the IC50 (5-HT1D) was 5.1 nM.

`COc1cncnc1N1CCN(CCCc2c[nH]c3c(F)cc(F)cc23)CC1` [Example 76] showed an IC50 (5-HT1D) of 8.1 nM.

In the case of `CN1C[C@H](C(=O)N[C@]2(C)O[C@@]3(O)[C@@H]4CCCN4C(=O)[C@H](Cc4ccccc4)N3C2=O)C=C2c3cccc4[nH]cc(c34)C[C@H]21` [ergotamine], the “side-effects / dependence (in words)” value [1] is listed as “cause dependence with extended use”.

In the case of `CC[C@@H](CO)NC(=O)[C@@H]1C=C2c3cccc4c3c(cn4C)C[C@H]2N(C)C1` [methysergide], the “side-effects / dependence (in words)” value [1] is given as “severe use-limiting side-effects with long term usage”.

In the case of `COC(=O)[C@H]1[C@H]2C[C@@H]3c4[nH]c5cc(OC)ccc5c4CCN3C[C@H]2C[C@@H](OC(=O)c2cc(OC)c(OC)c(OC)c2)[C@@H]1OC` [reserpine], the “effect on migraine headache (in words)” value (migraine sufferers) is given as “induces a typical migraine-type headache” and the “effect on plasma serotonin (in words)” value (plasma serotonin) is given as “lowers plasma serotonin”.

For `NCCc1c[nH]c2ccc(O)cc12` [serotonin creatinine sulfate], the “effect on migraine headache (in words)” value (migraine sufferers) is given as “induced headache can be alleviated”.

For `NCCc1c[nH]c2ccc(O)cc12` [serotonin], the “effect on migraine headache (in words)” value (migraine sufferers) is listed as “effective in treating migraine attacks” and the “side-effects / dependence (in words)” value [1] is listed as “restlessness, nausea, faintness, hyperpnea, facial flushing and parasthesias”.
